Experimental data taken from BigSolDB 2.1.

CCCCN(CCCC)CC(O)c1cc(Cl)cc2c1-c1ccc(Cl)cc1/C2=C/c1ccc(Cl)cc1 (stereo not given)
solubility (mole fraction)
Conditions	278.15 K	283.15 K	288.15 K	293.15 K	298.15 K	303.15 K	308.15 K	313.15 K	318.15 K	323.15 K
in ethyl acetate	0.00178	0.00234	0.00317	0.00411	0.0054	0.00693	0.00903	0.0116	0.0152	0.0201
in methanol	1.34e-05	1.7e-05	2.28e-05	3.04e-05	3.82e-05	4.97e-05	6.3e-05	8.2e-05	0.000106	0.000136
in n-butyl acetate	0.00425	0.00533	0.00674	0.00866	0.0108	0.0138	0.0176	0.0223	0.0286	0.036
in n-pentyl acetate	0.00475	0.00656	0.00849	0.011	0.0137	0.0168	0.0212	0.0253	0.0327	0.0407
in n-propyl acetate	0.00281	0.00366	0.00486	0.00656	0.00841	0.0109	0.0139	0.018	0.0231	0.0305
